Laboratory results as given in ChEMBL document CHEMBL1144845, “Ligand binding efficiency: trends, physical basis, and implications” (J Med Chem, 2008).

Experiment: Binding affinity to carbonic anhydrase

SMILES | Log Ki
CC(C)(C)c1ccc(C(=O)Nc2ccccc2S(N)(=O)=O)cc1 | -6.6
Cc1ccc(S(N)(=O)=O)cc1 [P-TOLUENESULFONAMIDE] | -6.5
CN1C(CN2CCOCC2)=Cc2sc(S(N)(=O)=O)cc2S1(=O)=O | -9.7
